In US10960020B2, “Modulation of PCSK9 and LDLR through DRP1 inhibition” (THE BRIGHAM AND WOMEN'S HOSPITAL, INC., priority 2016, dated 2021):

How the values were obtained:
BECLIN1 = BECLIN1 mRNA and protein; assay type: cell-based, human; settings: 24 hours
Text: Human cells and mouse liver was homogenized with TriZolTM (Life Technologies, Grand Island, N.Y.) to isolate RNA. QuantiTectTM Reverse Transcription Kit (Qiagen, Hilden, Germany) was used for reverse transcription on total RNA. cDNA was generated using the Quanta gScriptTM cDNA Synthesis Kit (Bioscience Inc., Gaithersburg, Md.). mRNA levels were quantified on a 7900HT real-time PCR system (Thermo Fisher Scientific) using TaqManTM real-time PCR with the following probes: Hs02758991_g1 (human GAPDH); Mm99999915_g1 (mouse Gapdh); Hs00236329 m1 (human BCL2L1); Hs00247147_m1 (human DRP1); Hs00545399_m1 (human PCSK9); Mm01263610_m1 (mouse Pcsk9); Hs00168352_m1 (human HMGCR); […]); Hs00181192_m1 (human LDLR); Mm00440169_m1 (mouse Ldlr); Hs01088691_m1 (human SREBP1); Mm00550338_m1 (mouse Srebp1); Hs00231674_m1 (human SREBP1a); custom primer (human SREBP1c); Hs01081784_m1 (human SREBP2); Mm01306292_m1 (mouse Srebp2); Hs01005622_m1 (human FASN); […]); Hs00167041_m1 (human HNF1A); Mm00493434_m1 (mouse Hnf1a); Hs00171168 (human APOE); Hs01059118_m1 (human ABCA1); Hs01103582_s1 (human JUN). Mouse SREBP-1c was analyzed by SYBERTM green PCR with the following primers: [NT] […] Protein concentrations were determined by the Pierce BCA AssayTM (Thermo Fisher Scientific). […] Protein levels were normalized to β-ACTIN, α-TUBULIN, or LAMIN A/C with the use of NIH ImageJ software for quantification.

hepatocyte cytoskeleton = experiment: Cytoskeleton gene panel and actin/microtubule confocal immunofluorescence; assay type: cell-based; settings: HepG2 and primary human hepatocytes, Mdivi-1 50 μM, 24 hours
Method: Filamentous actin was stained using CytoPainter Phallodin iFluor 555 Reagent (2 μl phalloidin in 2000 μl PBS with 1% BSA; Abcam), with a 60 minute incubation at room temperature. Slides were incubated with anti-alpha tubulin (1:200, Abcam, ab15246), PDI (1:100; 3501, Cell Signaling Technology), and anti-mitochondria (ab92824, Abcam) for 2 hours at room temperature or overnight at 4° C., followed by incubation with Alexa Fluor 488-labelled secondary antibody (1:200, Thermo Fisher Scientific). Nuclear staining was performed with DAPI (Thermo Fisher Scientific). Prior to visualization 200 μL PBS was added to each well. Liver tissue and cells were examined using a confocal microscope Al (Nikon Instruments Inc., Melville, N.Y.), and all images were processed with Elements 3.20 software (Nikon Instruments Inc.). Human cells and mouse liver was homogenized with TriZolTM (Life Technologies, Grand Island, N.Y.) to isolate RNA. […]

COc1cc(-n2c(S)nc3ccccc3c2=O)c(Cl)cc1Cl [Mdivi-1, 3-(2,4-Dichloro-5-methoxyphenyl)-2,3-dihydro-2-thioxo-4(1H)-quinazolinone]
did not alter: BECLIN1 protein abundance (BECLIN1; HepG2, Mdivi-1 50 μM) | BECLIN1 mRNA (BECLIN1; human hepatocytes, Mdivi-1 50 μM) | hepatocyte cytoskeleton (hepatocyte cytoskeleton)
